This test relates to P388/ADR leukemia. As to the kind of experiment: NCI tumour cell line growth inhibition, 48 h.

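Where inhibition never reached the appropriate level, the endpoint shown equals the highest concentration tested. Otherwise, values were interpolated linearly from a five-concentration, 48-hour dose response in 96-well plates. GI50 is the concentration that inhibits growth by half. TGI is the concentration that stops growth completely.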

As to `Cc1cc([NH-])c([NH-])cc1C.[Cl][Pt+2][Cl]`, the GI50 is 2.36 µM and the TGI is 6.97 µM.
